These results are taken from paper PMC4991273 (2016).

SMILES strings stand for the structures.

Assay [1] deals with ss17 (DNA, single strand) CCAGTTCGTAGTAACCC
In words: fluorescence emission titration. The settings on record: K+ 100 mM; 10 mM lithium cacodylate, pH 7.3; 2 μM compound; per motif of 5 bases; per site.

For assay [2], the system named is myc2345 (DNA, G4) TGAGGGTGGGGAGGGTGGGGAA
Nature of the assay: fluorescence emission titration. The settings on record: K+ 100 mM; 10 mM lithium cacodylate, pH 7.3; 2 μM compound; per motif (2 compounds per G-quadruplex); per site.

The test system of assay [3] is ds17 (DNA, duplex) CCAGTTCGTAGTAACCC/GGGTTACTACGAACTGG
In words: fluorescence emission titration. The note with it: K+ 100 mM; 10 mM lithium cacodylate, pH 7.3; 2 μM compound; per motif (2 compounds per 5 base pairs); per site.

The subject of assay [4] is TBA (DNA, G4) GGTTGGTGTGGTTGG
Nature of the assay: fluorescence emission titration. The settings on record: K+ 100 mM; 10 mM lithium cacodylate, pH 7.3; 2 μM compound; per site.

For assay [5], the system named is PDGF-A (DNA, G4) GGAGGCGGGGGGGGGGGGGCGGGGGCGGGGGCGGGGGAGGGGCGCGGC
In words: fluorescence emission titration. The note with it: K+ 100 mM (DNA annealed in 25 mM KCl); 10 mM lithium cacodylate, pH 7.3; 2 μM compound.

Assay [6] has as its system TBA (DNA, G4) GGTTGGTGTGGTTGG
In words: fluorescence enhancement and lifetime (TCSPC). The note with it: K+ 100 mM; 10 mM lithium cacodylate, pH 7.3; 2 μM compound.

Assay [7] relates to ss17 (DNA, single strand) CCAGTTCGTAGTAACCC
Nature of the assay: fluorescence enhancement and lifetime (TCSPC). The settings on record: K+ 100 mM; 10 mM lithium cacodylate, pH 7.3; 2 μM compound.

In assay [8] the test system is ds17 (DNA, duplex) CCAGTTCGTAGTAACCC/GGGTTACTACGAACTGG
Nature of the assay: fluorescence enhancement and lifetime (TCSPC). The settings on record: K+ 100 mM; 10 mM lithium cacodylate, pH 7.3; 2 μM compound.

Assay [9] deals with PDGF-A (DNA, G4) GGAGGCGGGGGGGGGGGGGCGGGGGCGGGGGCGGGGGAGGGGCGCGGC
In words: fluorescence enhancement and lifetime (TCSPC). The settings on record: K+ 100 mM (DNA annealed in 25 mM KCl); 10 mM lithium cacodylate, pH 7.3; 2 μM compound.

Assay [10] relates to myc2345 (DNA, G4) TGAGGGTGGGGAGGGTGGGGAA
Nature of the assay: fluorescence enhancement and lifetime (TCSPC). The settings on record: K+ 100 mM; 10 mM lithium cacodylate, pH 7.3; 2 μM compound.

Turning to `CCCn1c2cccc3oc4cccc5c4c(c4c1cccc4[n+]5CCC)-c32`, the K a in assay [1] is 1.0 ± 0.2 × 10^6 M^-1; in assay [2], 8.4 ± 2.9 × 10^5 M^-1; in assay [3], 2.1 ± 0.3 × 10^6 M^-1; in [4] it was 1.2 ± 0.4 × 10^6 M^-1; in [5], 1.6 ± 1.5 × 10^6 M^-1.
For the compound `c1cc2oc3cccc4c3c3c5c(cccc5[n+]4CCN4CCOCC4)n(CCN4CCOCC4)c(c1)c2-3`, the binding result in assay [6], in assay [7], in assay [8], in [9] and in assay [10] was “yes” in each case.
